One may read the Papp A→B as the apparent permeability from the apical to the basolateral side of a cell layer.

Data set [1] has as its target T1, A disintegrin and metalloproteinase with thrombospondin motifs 1 (Homo sapiens) (UniProt Q9UHI8).
T1 sequence (whole entry): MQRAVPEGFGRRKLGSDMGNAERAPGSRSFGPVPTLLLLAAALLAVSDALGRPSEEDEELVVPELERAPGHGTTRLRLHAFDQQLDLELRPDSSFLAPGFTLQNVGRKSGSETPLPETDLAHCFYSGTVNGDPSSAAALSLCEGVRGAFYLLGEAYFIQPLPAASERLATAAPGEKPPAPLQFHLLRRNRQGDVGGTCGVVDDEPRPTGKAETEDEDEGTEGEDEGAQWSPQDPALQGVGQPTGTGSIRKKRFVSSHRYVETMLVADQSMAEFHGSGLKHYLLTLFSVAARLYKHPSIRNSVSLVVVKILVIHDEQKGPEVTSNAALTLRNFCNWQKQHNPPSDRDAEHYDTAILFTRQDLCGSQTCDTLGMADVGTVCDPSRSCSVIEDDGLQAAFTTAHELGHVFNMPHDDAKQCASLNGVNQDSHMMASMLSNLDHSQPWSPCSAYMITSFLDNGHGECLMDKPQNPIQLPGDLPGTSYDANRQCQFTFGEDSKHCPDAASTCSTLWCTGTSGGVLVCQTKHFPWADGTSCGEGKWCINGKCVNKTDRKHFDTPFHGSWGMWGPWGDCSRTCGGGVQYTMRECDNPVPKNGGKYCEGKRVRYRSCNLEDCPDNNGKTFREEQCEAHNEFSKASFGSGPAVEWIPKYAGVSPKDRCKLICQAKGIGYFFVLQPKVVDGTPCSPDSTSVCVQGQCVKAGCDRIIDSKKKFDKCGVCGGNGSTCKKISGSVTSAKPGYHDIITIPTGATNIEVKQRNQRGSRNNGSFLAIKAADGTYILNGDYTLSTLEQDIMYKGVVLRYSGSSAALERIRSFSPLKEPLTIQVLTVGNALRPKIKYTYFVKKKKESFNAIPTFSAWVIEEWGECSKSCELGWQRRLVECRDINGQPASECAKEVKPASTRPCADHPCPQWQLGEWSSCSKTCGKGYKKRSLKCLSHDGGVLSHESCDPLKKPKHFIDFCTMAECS
Briefly: Inhibition of ADAM-TS1 dimethoxyfluorescein-Ser-Pro-Leu-Ala-Gln-Ala- Val-Arg-ser-Ser-Arg-Cys-fluorescein.

Data set [2] deals with Macrophage metalloelastase (Homo sapiens, UniProt P39900). Briefly: Inhibition of MMP12 using Mca-Pro-cyclohexyl-Ala-Gly-Nva-His-Ala- Dap(Dnp)-NH2 as substrate by fluorometric analysis.
Sequence of Macrophage metalloelastase (P39900 whole entry): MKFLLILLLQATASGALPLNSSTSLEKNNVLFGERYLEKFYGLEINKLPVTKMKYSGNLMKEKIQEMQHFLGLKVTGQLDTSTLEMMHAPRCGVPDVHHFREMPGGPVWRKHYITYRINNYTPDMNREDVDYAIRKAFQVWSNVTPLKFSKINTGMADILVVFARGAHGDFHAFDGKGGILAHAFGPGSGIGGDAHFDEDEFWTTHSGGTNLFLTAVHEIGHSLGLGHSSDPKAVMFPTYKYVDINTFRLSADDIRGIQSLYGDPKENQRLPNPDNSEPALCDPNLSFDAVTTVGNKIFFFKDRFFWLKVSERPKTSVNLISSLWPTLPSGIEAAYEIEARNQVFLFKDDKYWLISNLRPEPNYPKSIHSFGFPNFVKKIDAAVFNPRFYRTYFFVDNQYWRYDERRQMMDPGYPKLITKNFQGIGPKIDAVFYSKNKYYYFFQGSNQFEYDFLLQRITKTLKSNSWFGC
A short description of data set [3]: Apparent permeability across apical to basolateral side in human Caco2 cells at 10 uM. The format is ADME, cell-based. The conditions noted are these: Caco-2. In general terms: Caco-2 monolayers are a common model of the intestinal barrier.

Take `CN1CCC(NC(=O)c2ccc(Oc3ccc(C#C[C@]4(O)CN5CCC4CC5)cc3)cc2)CC1`: in data set [1], the INH was over 100 µM. The results for the IC50 in data set [2] (read-out: IC50) and in data set [2] (read-out: pIC50 (converted)) were over 8 µM and 7.94 µM, respectively. For the same compound, the apical-to-basolateral permeability (Papp A→B) at 10 µM in data set [3] amounted to 0.3 ×10⁻⁶ cm/s.

Source of the values: ChEMBL document CHEMBL1938343, “Lead optimisation of selective non-zinc binding inhibitors of MMP13. Part 2” (Bioorg Med Chem Lett, 2012).
